The record followed here is patent US6958318B2, “Recombinant bacterial cells for delivery of PNP to tumor cells” (The UAB Research Foundation, priority 1993, dated 2005).

In series [1] the target is T1, E. coli PNP (Escherichia coli, UniProt P0ABP8). Type of series: biochemical.
For series [2], the target named is T1, E. coli PNP.
Series [3] deals with tumor cells transduced with the E. coli PNP. As to the kind of experiment: Killing of PNP-transduced tumor cells in vitro by other prodrugs. Type of series: cell-based. The source says: In addition to MeP-dR, two other prodrugs suitable for E. coli PNP activation in tumor cells can be applied to the methodology of the present invention. These prodrugs are F-araA and 2-F-2′deoxyadenosine. […] As desired, this dose had no effect on control untransduced, tumor cells.

The target in the next series is T2, human PNP (Homo sapiens, UniProt P00491).
T2 sequence (P00491 1-289): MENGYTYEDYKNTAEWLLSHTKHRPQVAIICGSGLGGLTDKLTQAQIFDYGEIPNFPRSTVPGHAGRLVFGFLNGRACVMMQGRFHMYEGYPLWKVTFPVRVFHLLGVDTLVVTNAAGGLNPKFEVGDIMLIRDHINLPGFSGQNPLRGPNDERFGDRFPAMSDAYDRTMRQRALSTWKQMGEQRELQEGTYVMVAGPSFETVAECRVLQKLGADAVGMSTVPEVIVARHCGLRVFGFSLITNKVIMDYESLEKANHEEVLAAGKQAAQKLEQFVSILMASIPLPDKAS
In words: Cleavage of purine analog nucleosides by human PNP (HPLC). Type of series: biochemical.

The test system of the next series is 16/C-PNP cells. As to the kind of experiment: 16/C-PNP tumors in athymic nude mice. As to conditions: 100 mg/kg IP 3 id × 3 d; monophosphate.
A further series relates to 16/C-PNP tumors. As to the kind of experiment: E. coli PNP-transduced 16/C tumors in B6C3F1 mice. Type of series: in vivo. How it is done: (§1) Transduced 16/C cells were implanted in mice by subcutaneous injection of approximately 10^6 cells harvested from the cultures of stably transduced 16/C cells described above. The mice were examined visibly for tumor growth and those with developing tumors were maintained. To prepare mice for use in the in vivo experiments, the tumors were removed from mice with significant tumor growth and cut into 30-60 mg pieces. One 30-60 mg piece of the tumor was subcutaneously implanted into the subaxillary region of each female B6C3F1 mouse. The tumors were allowed to develop and mice with tumors of 100 mm^3 were used.
Six mice per group with established PNP-transduced 16/C tumors were treated with aqueous control solution, MeP-dR or F-ara AMP, as above. […] (Table III, 16/C-PNP treatment.)

The subject of a further series is D54-PNP tumors. As to the kind of experiment: E. coli PNP-transduced D54 glioma tumors in nude mice. It counts as in vivo. The settings on record: previous studies. How it is done: Female athymic nude mice (nu/nu) were implanted sc with 2×10^7 cells of either D54 parental tumor cells (D54-wt) or D54 tumor cells that had been transduced with the E. coli PNP (D54-PNP). After the tumors had grown to approximately 150 mg, they were treated ip with either vehicle or 67 mg/kg of MeP-dR (IP) once a day for 3 days (days 6, 7 and 8 after implantation). The tumor sizes were measured twice a week after treatment.
A confirmation experiment was set up exactly as described above, except that animals were treated with two doses of MeP-dR (45 and 67 mg/kg) (FIGS. 10 and 11). The results of this experiment were similar (Table V). There were 8 of 10 complete regressions in mice bearing the D54-PNP tumors that were treated with 67 mg/kg of MeP-dR. In 4 mice the tumors subsequently returned and grew. There were still 4 of 10 tumor-free survivors 60 days after the treatment had stopped. […] There were 2 of 10 complete regressions and 3 partial responses. […] The delay in the time required to double twice due to treatment with MeP-dR was 5 to 6 days in the non-transduced tumors and greater than 24 days in transduced tumors. In this experiment, the growth rate of the D54-PNP tumors was considerably slower than it was in the first experiment. There was no change in the growth rate of the D54-wt tumors. The reason for the slow growth rate of the D54-PNP tumors in this experiment is not known. […] (In other words, if a tumor was too small to measure, it was not included in the average size). This means that the overall tumor regressions in the D54 PNP group are actually much more pronounced than they appear in FIGS. 8-11.

For a further series, the system named is D54 glioma tumors. As to the kind of experiment: D54 tumors of mixed wild-type and transduced cells (80 to 20). As to conditions: in vivo.
Series [4] has as its system wild type murine breast carcinoma cells (16/C cell line). As to the kind of experiment: Wild-type 16/C tumors in nude mice. It counts as in vivo. The settings on record: FIG. 6. On the procedure: For studies conducted with nu/nu mice, cells obtained from stable cultures of transduced cell lines were injected subcutaneously into the right or left flank of the mice. Mice with visible tumor growth were used for further studies. For the administration of purine prodrug, mice were administered MeP-dR or F-araAMP by IP injection.
Four to five nude (nu/nu) mice per group were inoculated with wild type murine breast carcinoma cells (16/C cell line), or PNP transduced 16/C cells. Mice with established tumors (approximately 100 mm^3) were treated with MeP-dR (100 mg/kg/d IP×3 d) or F-araAMP (100 mg/kg/IP 3 id×3 d).

A further series deals with PNP transduced tumors. It counts as in vivo. As to conditions: mouse, in vivo.
A further series concerns wild-type 16/C tumors. As to the kind of experiment: Wild-type 16/C tumors in B6C3F1 mice. It counts as in vivo. How it is done:
as §1
Six mice (B6C3F1) per group with established wild type 16/C tumors were treated with an aqueous control solution, MeP-dR (100 mg/kg IP qd×3d) or 2-fluoro-arabinofuranosyladenine monophosphate (F-araAMP) (100 mg/kg IP, […]). The wild type tumors grew rapidly in the presence or absence of either of the prodrugs. […] (Table III, Wild-type 16/C treatment).

A short description of series [5]: Stability under tissue culture conditions (HPLC of supernatants). As to conditions: HPLC analysis of supernatants.
The subject of series [6] is CF PAC (human pancreatic adenocarcinoma) cells. In words: Intratumoral MeP in established human pancreatic tumors in SCID mice. Type of series: in vivo. The settings on record: once a day for three days. How it is done:
CF PAC (human pancreatic adenocarcinoma) cells were grown in T75 flasks, trypsinized, washed with PBS and then inoculated subcutaneously into female SCID mice at approximately 2×10^7 cells per animal. The tumors were allowed to grow for several days until they reached the size of approximately […]. At this point, groups of five animals were treated either with vehicle (PBS), PBS containing methyl purine (1.67 mg/kg) or PBS with a higher dose of methyl purine (5.0 mg/kg). Drug or vehicle was injected intratumorally with 3-4 needle passes. Animals were treated with either vehicle or drug one time each day for three days. The growth of the tumors was followed. Measurements in two dimension were used to approximate the overall tumor size. […] For example, purine analogs which are known to have strong cytotoxic activity such as 2-fluoroadenine, 2-fluoroadenosine, 9-[ribosyl]-6-methylpurine, 2-amino-6-chloro-1-deazapurine, 3-deazaguanine, 6-thioguanine, and 6-mercaptopurine can be directly administered to a tumor to cause regression and/or inhibit tumor growth.

Another series concerns Mel-1 cells. In words: Wild type melanoma cell viability. Type of series: cell-based, human. The settings on record: concentrations as low as 0.5 μg/ml, five days.
The test system of a further series is CEM cells. As to the kind of experiment: Toxicity to nondividing CEM cells (1% serum). Type of series: cell-based. As to conditions: 10 μg/ml, non-proliferating cells in 1% serum. On the procedure:
Results from experiments indicate that MeP is able to kill non-proliferating cells. This distinguishes MeP from most other antitumor agents. In the first experiment, CEM cells were cultured in 1% serum instead of the normal 10% serum for 48 hours. Under these conditions, the cells stop growing and the cell numbers stabilize at 1.5 to 2 times the original cell numbers. Cell growth continues when cells are returned to culture medium containing 10% serum.

For series [7], the system named is T-84 colon carcinoma cells. As to the kind of experiment: Toxicity of MeP and MeP-dR in untransfected T-84 cells. It counts as cell-based, human. How it is done:
T-84 colon carcinoma cells were grown in Dulbecco's modified Eagle medium containing F12 nutrient medium (DMEM/F12) (GIBCO/BRL, Gaithersburg, Md.) in 6 well trays to a density of approximately […] (−20% confluency).
Untransfected T-84 colon carcinoma cells were treated with increasing concentrations of either MeP-dR or MeP. After 5 days the cells were removed from each well and the number of dye excluding cells were determined with the aid of a hemacytometer. Cells were studied both at passage 48 (p. 48) and passage 61 (p. 61). MeP was obtained from Sigma Chemical Company (St. Louis, Mo.). MeP-dR was synthesized by standard methods as described (J. A. Montgomery and K. Howson, J. Med. Chem., 11:48-52 (1968)). The nucleoside and base were dissolved in serum free DMEM/F12 at a concentration of 1 mg/ml and added directly to 1 ml DMEM/F12 with 10% fetal bovine serum at the concentrations described below in order to cover 1-2×10^5 cells/well.
Initial cytopathic effects due to MeP were observed within 24 hours (for example, rounding of cells, with some cells detaching from plate). Viable cells were counted 5 days following addition of drug. […] Trypan blue exclusion was used to confirm viability in cells retaining recognizable structure at all concentrations studied. […] If the toxicity of MeP-dR is due to very low levels of liberation of MeP by human PNP, then combination with selective inhibitors of human PNP could prevent this toxicity.

Series [8] deals with Nc1nc(F)nc2c1ncn2[C@H]1C[C@H](O)[C@@H](CO)O1. As to the kind of experiment: purified protein, by the assay type.
In series [9] the test system is OC[C@H]1O[C@@H](n2cnc3c(O)ncnc32)[C@H](O)[C@@H]1O. In words: purified protein, by the assay type. The settings on record: other: enzyme source: Bacteria.
Where [10] appears, read: IP for three days, MeP-dR 100, F-araAMP 500 mg/kg/day.

Several values for one entry are separate records, joined by “and”; a condition that tells them apart may be missing. Equal values may be shown once. Entries after “also recorded” stand apart in the source; their conditions may differ.

T1 sequence (P0ABP8 2-239): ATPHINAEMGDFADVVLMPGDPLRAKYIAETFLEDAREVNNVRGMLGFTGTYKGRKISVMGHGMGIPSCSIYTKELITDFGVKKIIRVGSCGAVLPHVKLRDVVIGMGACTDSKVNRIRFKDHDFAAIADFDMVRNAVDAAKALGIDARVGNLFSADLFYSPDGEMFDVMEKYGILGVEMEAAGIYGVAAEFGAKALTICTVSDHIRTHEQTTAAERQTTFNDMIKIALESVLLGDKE

What is called Km is the concentration of substrate that gives half-maximal velocity. In the case of `Nc1nc(F)nc2c1ncn2[C@@H]1O[C@H](CO)[C@@H](O)[C@@H]1O` [F-araA, 2-F-arabinofuranosyl-adenine], on E. coli PNP [1], the “Percent of substrate cleaved by E. coli PNP, 100 μM” value is 3(86) Percent and 5(86) Percent; the “Substrate quality for bacterial (E. coli) PNP” value is listed as “moderate substrates; also recorded: poorly cleaved”. In addition, the Km on E. coli PNP [2] was determined as 510 µM. Further, in series [3], the “Killing of PNP-transduced tumor cells in vitro” value is listed as “high level killing”. Further, in series [3] (500 ng/ml), the “Killing of transduced versus untransduced tumor cells” value was “specifically killed transduced, but not untransduced, tumor cells”. Besides, on human PNP, the “Percent of substrate cleaved by Human PNP, 100 μM” value was 0(88) Percent and 0(86) Percent; the “Percent of substrate cleaved by Human PNP, 1 mM” value was 0(50) Percent and 0(47) Percent; the “Substrate quality for mammalian (human) PNP” value is given as “poor substrates; also recorded: not cleaved”.

With `Nc1nc(F)nc2c1ncn2[C@@H]1O[C@H](COP(=O)(O)O)[C@@H](O)[C@@H]1O` [F-araAMP, 2-fluoro-arabinofuranosyladenine monophosphate, reference compound], the “Effect of F-araAMP on growth of 16/C tumors expressing E. coli PNP” value in the series with 16/C-PNP cells was “growth delay for at least ten days; also recorded: significantly inhibited the growth”. Moreover, in the series on 16/C-PNP tumors (setting [10]), the “Complete Regressions/Total” value is on record as 0/6, the “Day delay (Treated-control)” value is 3.3 days and the “Nonspecific Deaths/Total” value is 0/6. In addition, in the series on 16/C-PNP tumors (p<0.01), the “Delay in time for three tumor doublings, in words” value is listed as “statistically significant delay”. Further, the “Days for tumor to double 3 times mean/SD” value in the series with 16/C-PNP tumors (tumors that completely regressed not included) was determined as 12.1 ± 1.6 days. Moreover, in the series on D54-PNP tumors, the “Activity against D54 glioma tumors expressing the E. coli PNP gene” value is listed as “good activity”. The “Activity against tumors of wild-type and transduced cells at 80 to 20” value in the series with D54 glioma tumors is given as “less active”. Also, the “Effect on growth of wild-type 16/C tumors” value in series [4] was “only a small effect on tumor growth”. Besides, the “Anti-tumor effect on PNP transduced tumors in mice” value in the series on PNP transduced tumors is reported as “in vivo regression”. Moreover, in the series on wild-type 16/C tumors (setting [10]), the “Complete Regressions/Total” value is reported as 0/6, the “Day delay (Treated-control)” value amounted to 2.7 days and the “Nonspecific Deaths/Total” value is 0/6. Also, the “Delay in tumor growth, in words” value in the series with wild-type 16/C tumors (wild type 16/C) is recorded as “no statistically significant delay in tumor growth”.

Consider `Cc1ncnc2nc[nH]c12` [MeP, 6-methylpurine, reference compound], for which the “Stability under tissue culture conditions” value in series [5] is on record as “stable”. The Tumor growth result was “intermediate effect upon tumor growth” in [6] (1.67 mg/kg intratumorally) and “completely arrested in terms of their growth” in series [6] (5.0 mg/kg intratumorally). In addition, in the series on Mel-1 cells, the “Lethality to Mel-1 cells” value is reported as about 100%. Further, the “Cell numbers relative to original number” value with CEM cells was “approximately 25%”. The “Time to initial cytopathic effects” value in series [7] is at most 24 h. The Effect on cells entry in series [7] (MeP 3.75 μM-75 μM, by day 2) is “cell lysis and complete loss of cellular architecture”.

E. coli PNP (Escherichia coli K-12): the Km in series [8] (other: enzyme source: Bacteria) was found to be 44 µM; in series [8] (other: enzyme source: D54 cells (transduced)) it was 38 µM; in series [9] it was 46 µM.
